Data published in paper PMC10747339 (Pharmaceutics, 2023).
Structures can show the parent of a compound that is named as a salt. Where two headings read alike, the source gives them in different places.

Tests used:
[1] = 19F NMR titration, association constant by 1:1 isotherm fit; assay type: physicochemical; conditions: D2O, 300 K, total 5 mM
Method: The stoichiometry of the complex was determined using Job’s method. […] The total molar concentration and the total volume were kept constant at 5 mM and 500 µL, respectively, and the molar ratio of each component was varied from 0 to 1. Corresponding ^19F NMR spectra were recorded. The observation of chemical shifts varying in a linear fashion with the concentrations of bound species was obtained and affords the corresponding Job plots as described elsewhere.
^19F NMR Titrations: the same experimental data set of Job plot titrations was used. The association constants were obtained by fitting a 1:1 isotherm according to the programs available at http://app.supramolecular.org/bindfit/ (accessed on 19 October 2023).

[2] = Phase solubility studies with cyclodextrins (Higuchi and Connors), complexation efficiency (Loftsson); assay type: physicochemical; conditions: phosphate buffer; for complexation efficiency (CE), range over the media: citrate buffer, WFI
Method: Cyclodextrins solutions (from 26 mM to 264 mM) were prepared within sodium citrate (50 mM, pH 3) and sodium phosphate (80 mM, pH 2.7) buffer solutions and WFI. […] Aliquots were drawn from these suspensions and filtered through a Pall Life Science (Cortland, NY, USA) 0.45 µm filter with a Versapore acrylic copolymer membrane before quantification. The pH of these suspensions was checked before filtration.
(§1) Quantification of mefloquine was performed using a Shimadzu® Nexera® high-performance liquid chromatography system (Kyoto, Japan). One microliter of samples was eluted on a 150 mm × 2.1 mm 1.7 µm octadodecyl Acquity® column (Waters, Milford, CT, USA) at 40 °C using an isocratic ammonia buffer(120 mM, pH 10):acetonitrile:methanol (40:40:20, v/v/v) mobile phase at a 1 mL/min flow rate. The samples were diluted to 1/10th with the mobile phase before injection. Quantification was performed at 283 nm with daily made calibration curves. This method was linear for concentrations ranging from 10 to 5000 mg/L. The limit of quantification was estimated at […] and the repeatability and intermediate fidelity were good (coefficient of variation < 5%) for concentrations ranging from 50 to 5000 mg/L.
Complexation efficiencies (CE) were determined from the phase solubility studies using the Loftsson method. CE = (D/CD)/(CD) = Slope/(1 − Slope) where (D/CD) is the concentration of dissolved complex; (CD) is the concentration of dissolved free CD, and Slope is the slope of the phase-solubility profile.

[3] = piperidine's basicity; cited from earlier work
[4] = hydrochloride salt, cited from earlier work
[5] = Solubility of mefloquine hydrochloride in buffer solutions and water for injection; assay type: physicochemical; conditions: for solubility at 24 h: thermodynamic from solid
Method: These suspensions were sonicated for 1 h and stirred for 24 h at 24 °C and protected from the light. Aliquots were drawn from these suspensions and filtered through a Pall Life Science (Cortland, NY, USA) 0.45 µm filter with a Versapore acrylic copolymer membrane before quantification. The pH of these suspensions was checked before filtration.
as §1

[6] = tested on: caco-2; set-up: method as in PMID 27045516; conditions: cited from earlier work
[7] = tested on: p-Gp; conditions: cited from earlier work
[8] = Photostability study (ICH), HPLC content; assay type: physicochemical; conditions: 168 days; for change in mefloquine content: 25 °C, 60% RH, 7500 Lux and 1.1 W/m^2; for color change: light exposure
Method: The solutions were stored in type 1 glass vials (n = 3 for each solution) sealed with a rubber septum. […] Photostability studies were conducted using the Binder KBF P240 climatic chamber (Tuttligen, Germany), equipped with UVA and visible illumination sources set at 7500 Lux and 1.1 W/m^2. The chamber was maintained at a temperature of 25 ± 2 °C and a relative humidity of 60 ± 5% during the 6-months study.
The method was adapted using pharmacopeia recommendations for utilization with the Phenomenex® Kinetex® 2.6 µm, 150 × 2.1 mm column (Torrance, CA, USA), featuring the same octadecyl stationary phase with a smaller particle size. By employing this column, the flow rate was optimized at 0.4 mL/min.

Compound | average association constant (K1:1) [1] [M⁻¹] | complexation efficiency (CE), range over the media [2] | pKa [3] | solubility ([4]; acetate buffer, pH 4.5, 37 °C) [µg/mL] | solubility ([4]; water, pH 6.5, 37 °C) [µg/mL] | solubility at 24 h ([5]; aqueous buffer, citrate buffer, pH 2.7, 24 °C) [µg/mL] | solubility at 24 h ([5]; aqueous buffer, phosphate buffer, pH 2.6, 24 °C) [µg/mL] | solubility at 24 h ([5]; aqueous buffer, phosphate buffer, pH 6.5, 24 °C) [µg/mL] | change in solubility, citrate buffer compared to phosphate buffer ([5]; same pH value) | solubility compared with previously reported ([5]; versus ref 4) | solubility at 24 h ([5]; water for injection (purified water), purified water, final pH 4.6, 24 °C) [µg/mL] | permeability [6] | p-Gp inhibition [7] | change in mefloquine content ([8]; 10 mg/mL in 200 mM RAMEB solution) | change in mefloquine content ([8]; 10 mg/mL in acetonitrile:water (50:50)) | color change ([8]; RAMEB solution) | color change ([8]; acetonitrile:water (50:50) solution) | additional peaks (degradation products) in chromatograms ([8]; both solutions) | equivalents of cyclodextrin to achieve target concentration of 26.5 mM (10 mg/mL) mefloquine [2]
CC(O)COC[C@H]1O[C@@H]2O[C@H]3[C@H](O)[C@@H](O)[C@@H](O[C@H]4[C@H](O)[C@@H](O)[C@@H](O[C@H]5[C@H](O)[C@@H](O)[C@@H](O[C@H]6[C@H](O)[C@@H](O)[C@@H](O[C@H]7[C@H](O)[C@@H](O)[C@@H](O[C@H]8[C@H](O)[C@@H](O)[C@@H](O[C@H]1[C@H](O)[C@H]2O)O[C@@H]8COCC(C)O)O[C@@H]7COCC(C)O)O[C@@H]6COCC(C)O)O[C@@H]5COCC(C)O)O[C@@H]4COCC(C)O)O[C@@H]3COCC(C)O (stereo partly drawn) [HP-β-CD, hydroxypropyl-β-cyclodextrin] | 140.5 | 0.1–0.13 |  |  |  |  |  |  |  |  |  |  |  |  |  |  |  |  | 
OC(c1cc(C(F)(F)F)nc2c(C(F)(F)F)cccc12)C1CCCCN1 (stereo not drawn) [mefloquine, mefloquine hydrochloride] |  |  | 8.6 | 1950 | 1806 | 640 | 4810 | 780 | eight-fold decrease | two-fold higher | 4120 | around 9 × 10^−6 cm/s | moderate | No substantial change | No substantial change | No color change | No color change | did not reveal any additional peak appearances | 
randomly methylated β-cyclodextrin [RAMEB] | 333.4 | 0.31–0.38 |  |  |  |  |  |  |  |  |  |  |  |  |  |  |  |  | approximately two
